Biological target: T1, human P2X4 (Homo sapiens, UniProt Q99571)
T1 sequence (Q99571 1-388): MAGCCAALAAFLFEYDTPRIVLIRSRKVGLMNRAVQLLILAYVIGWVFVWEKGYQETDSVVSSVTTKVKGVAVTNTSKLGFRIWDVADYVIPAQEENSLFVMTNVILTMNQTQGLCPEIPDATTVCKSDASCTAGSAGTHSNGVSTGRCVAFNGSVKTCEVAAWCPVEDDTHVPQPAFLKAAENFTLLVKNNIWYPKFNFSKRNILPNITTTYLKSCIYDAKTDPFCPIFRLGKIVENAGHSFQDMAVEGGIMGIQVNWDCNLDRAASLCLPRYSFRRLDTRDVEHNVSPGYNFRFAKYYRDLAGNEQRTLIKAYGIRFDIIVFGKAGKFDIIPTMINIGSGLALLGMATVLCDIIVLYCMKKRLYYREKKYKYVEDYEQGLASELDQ
Test: Human P2X4 HEK Cell FLIPR Assay
Assay type: cell-based
Details: agonist Bz-ATP at EC80; for Emax: HEK293, HEK293 cells, percentage of maximal inhibition, read-out: Human P2X4 HEK Cells (FLIPR Assay) avg Efficacy [%]; for IC50: HEK293 cells, individual values listed where some fall outside detection range
In short: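 Calcium flux read by FLIPR for 120 sec after Bz-ATP challenge at EC80 (established each assay day), following 30 min room-temperature compound preincubation in dye-loaded stable human P2X4 HEK293 cells. Peak RFU over basal normalized to agonist control; IC50, maximal inhibition and Hill coefficient from triplicate means.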

Emax [%] | IC50 [nM] | Structure (SMILES)
84 | 211 | NS(=O)(=O)c1cc(NC(=O)Cc2cc(Cl)ccc2Cl)ccc1-n1cc(C(F)(F)F)cn1 [Example 136, 2-(2,5-Dichlorophenyl)-N-{3-sulfamoyl-4-[4-(trifluoromethyl)-1H-pyrazol-1-yl]phenyl}-acetamide]
89 | 1170 | CC(C)c1ccccc1CC(=O)Nc1ccc(-n2cc(C(F)(F)F)cn2)c(S(N)(=O)=O)c1 [Example 137, 2-(2-Isopropylphenyl)-N-{3-sulfamoyl-4-[4-(trifluoromethyl)-1H-pyrazol-1-yl]phenyl}-acetamide]
100 | 238 | COc1ccc(Cl)c(CC(=O)Nc2ccc(-n3cc(C(F)(F)F)cn3)c(S(N)(=O)=O)c2)c1 [Example 138, 2-(2-Chloro-5-methoxyphenyl)-N-{3-sulfamoyl-4-[4-(trifluoromethyl)-1H-pyrazol-1-yl]phenyl}acetamide]
100 | 107 | NS(=O)(=O)c1cc(NC(=O)Cc2cc(F)ccc2Cl)ccc1-n1cc(C(F)(F)F)cn1 [Example 139, 2-(2-Chloro-5-fluorophenyl)-N-{3-sulfamoyl-4-[4-(trifluoromethyl)-1H-pyrazol-1-yl]phenyl}acetamide]
92 | 77 | NS(=O)(=O)c1cc(NC(=O)Cc2ccccc2C(F)(F)F)ccc1-n1cc(F)cn1 [Example 140, N-[4-(4-Fluoro-1H-pyrazol-1-yl)-3-sulfamoylphenyl]-2-[2-(trifluoromethyl)phenyl]-acetamide]
96 | 638 | Cc1cc(F)c(Br)cc1CC(=O)Nc1ccc(-n2cc(C(F)(F)F)cn2)c(S(N)(=O)=O)c1 [Example 141, 2-(5-Bromo-4-fluoro-2-methylphenyl)-N-{3-sulfamoyl-4-[4-(trifluoromethyl)-1H-pyrazol-1-yl]phenyl}acetamide]
78 | 116 | COc1cccc(Cl)c1CC(=O)Nc1ccc(-n2cc(C(F)(F)F)cn2)c(S(N)(=O)=O)c1 [Example 142, 2-(2-Chloro-6-methoxyphenyl)-N-{3-sulfamoyl-4-[4-(trifluoromethyl)-1H-pyrazol-1-yl]phenyl}acetamide]
84 | 247 | NS(=O)(=O)c1cc(NC(=O)Cc2c(F)cc(F)cc2Cl)ccc1-n1cc(C(F)(F)F)cn1 [Example 143, 2-(2-Chloro-4,6-difluorophenyl)-N-{3-sulfamoyl-4-[4-(trifluoromethyl)-1H-pyrazol-1-yl]phenyl}acetamide]
62 | 292 | NS(=O)(=O)c1cc(NC(=O)Cc2cccc(F)c2)ccc1-n1cc(F)cn1 [Example 144, 2-(3-Fluorophenyl)-N-[4-(4-fluoro-1H-pyrazol-1-yl)-3-sulfamoylphenyl]acetamide]
49 | > 25000 | NS(=O)(=O)c1cc(NC(=O)Cc2ccc(F)c(F)c2)ccc1-n1cc(F)cn1 [Example 145, 2-(3,4-Difluorophenyl)-N-[4-(4-fluoro-1H-pyrazol-1-yl)-3-sulfamoylphenyl]acetamide]
66 | 364 | NS(=O)(=O)c1cc(NC(=O)Cc2cc(F)cc(F)c2)ccc1-n1cc(F)cn1 [Example 146, 2-(3,5-Difluorophenyl)-N-[4-(4-fluoro-1H-pyrazol-1-yl)-3-sulfamoylphenyl]acetamide]
100 | 80 | NS(=O)(=O)c1cc(NC(=O)Cc2ccccc2O)ccc1-n1cc(F)cn1 [Example 147, N-[4-(4-Fluoro-1H-pyrazol-1-yl)-3-sulfamoylphenyl]-2-(2-hydroxyphenyl)acetamide]
63 | 132 | NS(=O)(=O)c1cc(NC(=O)Cc2cccc(Cl)c2)ccc1-n1cc(F)cn1 [Example 148, 2-(3-Chlorophenyl)-N-[4-(4-fluoro-1H-pyrazol-1-yl)-3-sulfamoylphenyl]acetamide]
56 | 211 | NS(=O)(=O)c1cc(NC(=O)Cc2ccc(F)cc2)ccc1-n1cc(F)cn1 [Example 149, 2-(4-Fluorophenyl)-N-[4-(4-fluoro-1H-pyrazol-1-yl)-3-sulfamoylphenyl]acetamide]
80 | 433 | NS(=O)(=O)c1cc(NC(=O)Cc2ccc(O)cc2)ccc1-n1cc(F)cn1 [Example 150, N-[4-(4-Fluoro-1H-pyrazol-1-yl)-3-sulfamoylphenyl]-2-(4-hydroxyphenyl)acetamide]
83 | 81 | Cc1cccc(CC(=O)Nc2ccc(-n3cc(F)cn3)c(S(N)(=O)=O)c2)c1 [Example 151, N-[4-(4-Fluoro-1H-pyrazol-1-yl)-3-sulfamoylphenyl]-2-(3-methylphenyl)acetamide]

Emax [%] | IC50 [nM] | Structure (SMILES)
79 | 105 | Cc1ccc(CC(=O)Nc2ccc(-n3cc(F)cn3)c(S(N)(=O)=O)c2)cc1 [Example 152, N-[4-(4-Fluoro-1H-pyrazol-1-yl)-3-sulfamoylphenyl]-2-(4-methylphenyl)acetamide]
74 | 182 | COc1ccc(CC(=O)Nc2ccc(-n3cc(F)cn3)c(S(N)(=O)=O)c2)cc1 [Example 153, N-[4-(4-Fluoro-1H-pyrazol-1-yl)-3-sulfamoylphenyl]-2-(4-methoxyphenyl)acetamide]
84 | 30 | Cc1ccccc1CC(=O)Nc1ccc(-n2cc(F)cn2)c(S(N)(=O)=O)c1 [Example 154, N-[4-(4-Fluoro-1H-pyrazol-1-yl)-3-sulfamoylphenyl]-2-(2-methylphenyl)acetamide]
86 | 108 | NS(=O)(=O)c1cc(NC(=O)Cc2cccc(F)c2F)ccc1-n1cc(F)cn1 [Example 155, 2-(2,3-Difluorophenyl)-N-[4-(4-fluoro-1H-pyrazol-1-yl)-3-sulfamoylphenyl]acetamide]
94 | 243 | CCOc1ccccc1CC(=O)Nc1ccc(-n2cc(F)cn2)c(S(N)(=O)=O)c1 [Example 156, 2-(2-Ethoxyphenyl)-N-[4-(4-fluoro-1H-pyrazol-1-yl)-3-sulfamoylphenyl]acetamide]
90 | 153 | NS(=O)(=O)c1cc(NC(=O)Cc2ccccc2OC(F)F)ccc1-n1cc(F)cn1 [Example 157, 2-[2-(Difluoromethoxy)phenyl]-N-[4-(4-fluoro-1H-pyrazol-1-yl)-3-sulfamoylphenyl]-acetamide]
89 | 2600 | NS(=O)(=O)c1cc(NC(=O)Cc2cccnc2Cl)ccc1-n1cc(F)cn1 [Example 158, 2-(2-Chloropyridin-3-yl)-N-[4-(4-fluoro-1H-pyrazol-1-yl)-3-sulfamoylphenyl]acetamide]
82 | 12 | Cc1ccc(F)c(CC(=O)Nc2ccc(-n3cc(F)cn3)c(S(N)(=O)=O)c2)c1Cl [Example 159, 2-(2-Chloro-6-fluoro-3-methylphenyl)-N-[4-(4-fluoro-1H-pyrazol-1-yl)-3-sulfamoyl-phenyl]acetamide]
89 | 58 | NS(=O)(=O)c1cc(NC(=O)Cc2ccccc2OC(F)(F)F)ccc1-n1cc(F)cn1 [Example 160, N-[4-(4-Fluoro-1H-pyrazol-1-yl)-3-sulfamoylphenyl]-2-[2-(trifluoromethoxy)phenyl]-acetamide]
43 | > 25000 | NS(=O)(=O)c1cc(NC(=O)Cc2cc(F)c(F)cc2Cl)ccc1-n1cc(F)cn1 [Example 161, 2-(2-Chloro-4,5-difluorophenyl)-N-[4-(4-fluoro-1H-pyrazol-1-yl)-3-sulfamoylphenyl]]
92 | 19 | NS(=O)(=O)c1cc(NC(=O)Cc2cccc(C(F)(F)F)c2Cl)ccc1-n1cc(F)cn1 [Example 162, 2-[2-Chloro-3-(trifluoromethyl)phenyl]-N-[4-(4-fluoro-1H-pyrazol-1-yl)-3-sulfamoyl-phenyl]acetamide]
89 | 93 | NS(=O)(=O)c1cc(NC(=O)Cc2cc(Cl)ccc2Cl)ccc1-n1cc(F)cn1 [Example 163, 2-(2,5-Dichlorophenyl)-N-[4-(4-fluoro-1H-pyrazol-1-yl)-3-sulfamoylphenyl]acetamide]
83 | 27 | NS(=O)(=O)c1cc(NC(=O)Cc2c(F)ccc(F)c2Cl)ccc1-n1cc(F)cn1 [Example 164, 2-(2-Chloro-3,6-difluorophenyl)-N-[4-(4-fluoro-1H-pyrazol-1-yl)-3-sulfamoylphenyl]-acetamide]
93 | 42 | Cc1ccc(Cl)c(CC(=O)Nc2ccc(-n3cc(F)cn3)c(S(N)(=O)=O)c2)c1 [Example 165, 2-(2-Chloro-5-methylphenyl)-N-[4-(4-fluoro-1H-pyrazol-1-yl)-3-sulfamoylphenyl]-acetamide]
78 | 1520 | Cc1cc(F)c(Br)cc1CC(=O)Nc1ccc(-n2cc(F)cn2)c(S(N)(=O)=O)c1 [Example 166, 2-(5-Bromo-4-fluoro-2-methylphenyl)-N-[4-(4-fluoro-1H-pyrazol-1-yl)-3-sulfamoylphenyl]acetamide]
94 | 64 | CC(C)c1ccccc1CC(=O)Nc1ccc(-n2cc(F)cn2)c(S(N)(=O)=O)c1 [Example 167, N-[4-(4-Fluoro-1H-pyrazol-1-yl)-3-sulfamoylphenyl]-2-(2-isopropylphenyl)acetamide]
